We go through one molecule from US20070135383A1, “Phospholipase inhibitors, including multi-valent phospholipase inhibitors, and use thereof, including as lumen-localized phospholipase inhibitors” (priority 2005, published 2007).

A short description of series [1]: In-vitro Caco-2 permeability study (Example 1B-2). The settings on record: human.
Series [2] can be described thus: Pharmacokinetic study of ILY-4001, IV and oral (Example 1B-3). The series is classed as in vivo, mice. The settings on record: 30 mg/kg oral. How it is done:
This example evaluated the bioavailability of ILY-4001 [2-(3-(2-amino-2-oxoacetyl)-1-(biphenyl-2-ylmethyl)-2-methyl-1H-indol-4-yloxy)acetic acid], alternatively referred to herein as methyl indoxam. Specifically, a pharmokinetic study was conducted to determine the fraction of unchanged ILY-4001 in systemic circulation following administration.
Bioavailability was calculated as a ratio of AUC-oral/AUC-intravenous (IV). To determine this ratio, a first set of subject animals were given a measured intravenous (IV) dose of ILY-4001, followed by a determination of ILY-4001 levels in the blood at various time points after administration (e.g., 5 minutes through 24 hours). Another second set of animals was similarly dosed using oral administration, with blood levels of ILY-4001 determined at various time points after administration (e.g., 30 minutes through 24 hours). The level of ILY-4001 in systemic circulation were determined by generally accepted methods (for example as described in Evans, G., A Handbook of Bioanalysis and Drug Metabolism. Boca Raton, CRC Press (2004)). Specifically, […]/mass spectrometry/mass spectrometry (LC/MS/MS) analytical methods were used to quantitate plasma concentrations of ILY-4001 after oral and intravenous administration. Pharmacokinetic parameters that were measured include Cmax, AUC, tmax, t1/2, and F (bioavailability). […]

The structures appear in SMILES notation.

As usually defined, the Papp A→B is the apparent permeability from the apical to the basolateral side of a cell layer. Read a high Papp A→B as fast passage.

`Cc1c(C(=O)C(N)=O)c2c(OCC(=O)O)cccc2n1Cc1ccccc1-c1ccccc1` [ILY-4001, 2-(3-(2-amino-2-oxoacetyl)-1-(biphenyl-2-ylmethyl)-2-methyl-1H-indol-4-yloxy)acetic acid] displayed a Papp A→B at 6 hr, 50 ug/ml in series [1] of roughly 0.166 ×10⁻⁶ cm/s. Also, the “level of non-absorption from the GI tract into systemic circulation” value in series [2] is reported as roughly 72%.
